# Data published in patent publication US12145914B2, “Compound having oxadiazole and pharmaceutical composition containing the same” (SK BIOPHARMACEUTICALS CO., LTD., priority 2018, dated 2024).
# System: focal onset seizures induced by electrostimulation of 44 mA, 6 Hz, 3 sec in ICR mouse
# Test: 6 Hz method for screening anticonvulsants (6 Hz, 44 mA electrostimulation)
# Type: in vivo
# Details: male ICR mice, intraperitoneal (ip), electrostimulation 44 mA, 3 sec to the eye, number of non-seizure animals/number of animals used
# Excerpt: The utility of the compounds according to the present invention as an anticonvulsant agent has been investigated by the 6 Hz method, which has been well established as pharmacological screening methods of convulsant agents for focal onset seizures. The procedure of the 6 Hz method for screening anticonvulsant was as follows:
# 1) Preparation of Experimental Animals
# Male ICR mice are purchased from Orient Bio, Inc. of Korea, and are stored and managed according to laboratory animal management standards of the Institutional Animal Care and Use Committee (IACUC) by putting the same in a wire net cage under an environment in which an ambient temperature of 19 to 25° C., 40 to 60% relative humidity and 12 hour periods of light/dark were auto-controlled, and water was freely taken. After stabilization for a week, mice with a body weight of 18 to 23 g were used in the experiment.
# 2) Evaluation of the Anticonvulsant Effect of a Compound
# 5% Tetracaine (Sigma) was added to both eyes to provide a local anesthetic effect at 5 to 10 minutes before the period of electrical stimulation at the animal ICR mouse. The compounds to be tested were dissolved in distilled water in which 30% polyethylene glycol 300+5% dimethylsulfoxide+5% Cremophor was dissolved and administered intraperitoneally (ip) to the animal at a dosage volume of 10 mL/kg. Then, electrostimulation of 44 mA, 6 Hz, and 3 sec was applied to the eye to induce focus-generating seizures. After the electrical stimulation, the presence of seizures due to drug effects was confirmed, and the ratio of animals showing no seizures was expressed as a protection rate (the number of non-seizure animals/the number of animals used in experiments=protection rate). […]
row,Compound,"6 Hz, 44 mA protection rate"
1,"Cc1nnc(CC(OC(N)=O)c2cc(CCCCC(F)(F)F)ccc2F)o1 (stereo not drawn) [Example 34, [1-[2-fluoro-5-(5,5,5-trifluoropentyl)phenyl]-2-(5-methyl-1,3,4-oxadiazol-2-yl)ethyl] carbamate]",++ (0.6 to 0.8 are scored as ‘++’)
2,"CC1(C)O[C@@H]2[C@@H](CO[C@@]3(COS(N)(=O)=O)OC(C)(C)O[C@@H]23)O1 [Topiramate, reference compound]",− (the protection rates 0 to 0.2 are scored as ‘−’)
3,"CC(=O)OC(Cc1nnc(C)o1)c1cccc(-c2ccc(C(F)(F)F)cc2)c1 (stereo not drawn) [Example 55, [2-(5-methyl-1,3,4-oxadiazol-2-yl)-1-[3-[4-(trifluoromethyl)phenyl]phenyl]ethyl]acetate]",+ (0.2 to 0.6 are scored as ‘+’)
4,"Cc1nnc(CC(O)c2cc(-c3ccc(C(F)(F)F)cc3)ccc2C)o1 (stereo not drawn) [Example 42, 2-(5-methyl-1,3,4-oxadiazol-2-yl)-1-[2-methyl-5-[4-(trifluoromethyl)phenyl]phenyl]ethanol]",++ (0.6 to 0.8 are scored as ‘++’)
5,"Cc1nnc(CC(OC(N)=O)c2cc(-c3ccc(C(F)(F)F)cc3)ccc2Cl)o1 (stereo not drawn) [Example 50, [1-[2-chloro-5-[4-(trifluoromethyl)phenyl]phenyl]-2-(5-methyl-1,3,4-oxadiazol-2-yl)ethyl] carbamate]",++ (0.6 to 0.8 are scored as ‘++’)
6,"Cc1nnc(CC(OC(N)=O)c2cc(OCC(F)(F)F)ccc2F)o1 (stereo not drawn) [Example 18, [1-[2-fluoro-5-(2,2,2-trifluoroethoxy)phenyl]-2-(5-methyl-1,3,4-oxadiazol-2-yl)ethyl] carbamate]",+ (0.2 to 0.6 are scored as ‘+’)
